Key:
[1] = target: T1, ATP-dependent translocase ABCB1 (Homo sapiens, UniProt P08183); experiment: TP_TRANSPORTER: drug resistance (vinblastine) in K562/R10 cells; type: functional, cell-based
[2] = target: T1, ATP-dependent translocase ABCB1; experiment: TP_TRANSPORTER: increase in Doxorubicin intracellular accumulation (Doxorubicin: […]) in K562/R10 cells; type: functional, cell-based

T1 sequence (P08183 whole entry): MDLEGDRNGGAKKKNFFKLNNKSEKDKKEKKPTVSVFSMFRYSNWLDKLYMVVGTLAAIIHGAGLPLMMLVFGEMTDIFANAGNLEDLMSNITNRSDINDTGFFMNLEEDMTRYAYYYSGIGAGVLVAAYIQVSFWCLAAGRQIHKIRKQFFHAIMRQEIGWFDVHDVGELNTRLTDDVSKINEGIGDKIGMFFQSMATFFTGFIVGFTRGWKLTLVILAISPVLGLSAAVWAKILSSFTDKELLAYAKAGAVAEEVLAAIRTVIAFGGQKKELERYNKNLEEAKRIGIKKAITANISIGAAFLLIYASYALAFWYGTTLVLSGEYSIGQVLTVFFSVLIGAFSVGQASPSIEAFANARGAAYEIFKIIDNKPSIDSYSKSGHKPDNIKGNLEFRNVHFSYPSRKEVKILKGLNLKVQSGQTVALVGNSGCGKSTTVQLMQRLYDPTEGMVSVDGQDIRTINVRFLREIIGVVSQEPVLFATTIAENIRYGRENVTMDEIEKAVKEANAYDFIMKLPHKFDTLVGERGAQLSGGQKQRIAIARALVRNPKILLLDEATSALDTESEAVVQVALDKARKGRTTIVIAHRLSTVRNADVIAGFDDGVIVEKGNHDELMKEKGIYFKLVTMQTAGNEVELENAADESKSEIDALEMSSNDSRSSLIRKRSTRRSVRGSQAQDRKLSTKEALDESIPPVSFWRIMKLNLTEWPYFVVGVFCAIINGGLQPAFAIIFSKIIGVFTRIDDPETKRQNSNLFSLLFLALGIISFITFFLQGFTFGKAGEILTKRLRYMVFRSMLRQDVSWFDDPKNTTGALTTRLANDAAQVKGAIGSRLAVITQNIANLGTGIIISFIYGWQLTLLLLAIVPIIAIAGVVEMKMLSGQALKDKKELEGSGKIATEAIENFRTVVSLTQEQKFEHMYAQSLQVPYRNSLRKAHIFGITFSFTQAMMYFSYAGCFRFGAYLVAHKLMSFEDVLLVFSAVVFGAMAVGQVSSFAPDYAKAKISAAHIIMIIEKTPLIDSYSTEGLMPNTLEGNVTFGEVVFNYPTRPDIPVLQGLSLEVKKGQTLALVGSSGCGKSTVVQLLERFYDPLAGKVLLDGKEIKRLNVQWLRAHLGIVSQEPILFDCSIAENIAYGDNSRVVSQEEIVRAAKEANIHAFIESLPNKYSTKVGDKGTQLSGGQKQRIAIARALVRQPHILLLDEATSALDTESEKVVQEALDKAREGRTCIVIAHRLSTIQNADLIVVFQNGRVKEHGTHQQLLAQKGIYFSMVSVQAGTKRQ

In the case of C=CCSCC=C [DIALLYL SULFIDE], the Activity [1] is reported as “inhibitor [+]” and the Activity [2] is reported as “inhibitor [+]”.

From ChEMBL document CHEMBL2074024, “Reversal of P-glycoprotein-mediated multidrug resistance by diallyl sulfide in K562 leukemic cells and in mouse liver” (Carcinogenesis, 2004)
